Measurements reported in ChEMBL document CHEMBL3045730, “An efficient anticancer histone deacetylase inhibitor and its analogues for human HDAC8” (Med Chem Res, 2012).

Target: T1, Histone deacetylase 8 (Homo sapiens, UniProt Q9BY41)
T1 sequence (Q9BY41 whole entry): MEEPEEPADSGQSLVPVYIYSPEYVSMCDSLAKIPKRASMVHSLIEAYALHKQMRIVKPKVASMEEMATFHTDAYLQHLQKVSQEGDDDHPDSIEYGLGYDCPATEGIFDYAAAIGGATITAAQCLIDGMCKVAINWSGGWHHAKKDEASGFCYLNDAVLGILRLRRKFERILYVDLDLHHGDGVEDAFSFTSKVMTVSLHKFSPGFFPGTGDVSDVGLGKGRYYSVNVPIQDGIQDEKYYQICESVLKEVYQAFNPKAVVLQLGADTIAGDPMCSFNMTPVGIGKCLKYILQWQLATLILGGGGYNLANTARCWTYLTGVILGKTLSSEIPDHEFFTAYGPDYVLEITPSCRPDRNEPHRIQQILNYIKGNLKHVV
Assay: Inhibition of Homo sapiens (human) HDAC8

Row | Compound | IC50 [nM]
1 | COc1ccc(N)c(NC(=O)c2ccc(CNC(=O)OCc3cccnc3)cc2)c1 | 4600
2 | O=C(NCc1ccc(C(=O)Nc2ccccc2)cc1)OCc1cccnc1 | > 100000
3 | Nc1ccc(NC(=O)c2ccc(CNC(=O)OCc3cccnc3)cc2)cc1 | > 100000
4 | Cc1ccc(N)c(NC(=O)c2ccc(CNC(=O)OCc3cccnc3)cc2)c1 | 2800
5 | O=C(/C=C/c1ccc(Cc2ccc(O)c(Cl)c2)cc1)NO | 460
6 | CC(CCCCCC(=O)c1ccc2ccccc2c1)C(=O)NOCCCCC(=O)NO (stereo unspecified) | 600
7 | C/C(=C\Cc1ccc(NS(=O)(=O)c2ccccc2)cc1)CC(=O)NO | 2000
8 | CC(C)c1cc(C(C)C)c(C(C)C)cc1CS(=O)(=O)Nc1ccc(/C=C\C(=O)NO)cc1 | 600
9 | O=C(NO)c1ccc(CCCc2ccccc2)cc1 | 1000
10 | Cc1ccc(NC(=O)c2ccc(CNC(=O)OCc3cccnc3)cc2)c(N)c1 | > 100000
11 | O=C(Cc1ccc(NS(=O)(=O)c2ccccc2)cc1)NO | 900
12 | Nc1cc(Cl)ccc1NC(=O)c1ccc(CNC(=O)OCc2cccnc2)cc1 | 40000
13 | COc1ccc(NC(=O)c2ccc(CNC(=O)OCc3cccnc3)cc2)c(N)c1 | 44000
14 | Nc1ccc(Cl)cc1NC(=O)c1ccc(CNC(=O)OCc2cccnc2)cc1 | 7700
15 | O=C(NCc1ccc(C(=O)Nc2ccccc2O)cc1)OCc1cccnc1 | 2200
16 | Nc1ccc(F)cc1NC(=O)c1ccc(CNC(=O)OCc2cccnc2)cc1 | 6000
17 | O=C(/C=C/C=C/c1ccc(-c2ccccc2)cc1)NO | > 5000
18 | CC(=O)c1cc(/C=C/C(=O)NO)n(C)c1 | 11300
19 | Cn1cc(C=O)cc1CCC(=O)NO | 52600
20 | Cn1cc(C(=O)Cl)cc1/C=C/C(=O)NO | 9650
21 | O=C(CCc1ccc(-c2ccc(O)cc2)cc1)NO | 1700
22 | Cn1cc(C=O)cc1/C=C/C(=O)NO | 12300
23 | O=C(/C=C/c1cccc(-c2ccc(O)cc2)c1)NO | 320
24 | COc1ccc(C(=O)CCCCCCC(=O)NO)cc1 | 450
25 | O=C(/C=C/c1ccc(NS(=O)(=O)c2ccc(Cl)cc2Cl)cc1)NO | 300
26 | O=C(CCCCCC(=O)c1ccccc1)NO | 1500
27 | O=C(CCCCCCC(=O)c1ccccc1)NO | 500
28 | Nc1cccc(NC(=O)c2ccc(CNC(=O)OCc3cccnc3)cc2)c1 | > 100000
29 | CC(=O)Nc1ccccc1NC(=O)c1ccc(CNC(=O)OCc2cccnc2)cc1 | > 100000
30 | Cc1cccc(NC(=O)c2ccc(CNC(=O)OCc3cccnc3)cc2)c1N | > 100000

Continued, values first:

Row | IC50 [nM] | Compound
31 | 20 | O=C(/C=C/c1ccc(Cc2ccc(CO)cc2)cc1)NO
32 | 71.4 | O=C(CCCCCCCN1C(=O)c2ccccc2C1=O)NO
33 | 135 | O=C(CCCCCCCCC(=O)c1ccccc1)NO
34 | 153 | O=C(CCCCCCCC(=O)c1cccnc1)NO
35 | 95 | COc1ccccc1C(=O)CCCCCCCC(=O)NO
36 | 15 | COc1ccc(C(=O)CCCCCCCC(=O)NO)cc1
37 | 45 | O=C(CCCCCCCC(=O)c1ccc(C(F)(F)F)cc1)NO
38 | 45 | O=C(CCCCCCCC(=O)c1ccc(Br)cc1)NO
39 | 5 | O=C(CCCCCCCC(=O)c1ccc(-c2ccccc2)cc1)NO
40 | 8.5 | O=C(CCCCCCC/C(=N\O)c1ccc2ccccc2c1)NO
41 | 4 | O=C(CCCCCCC/C(=N\O)c1ccc(-c2ccccc2)cc1)NO
42 | 8 | C=C(CCCCCCCC(=O)NO)c1ccc2ccccc2c1
43 | 2 | O=C(CCCCCCCC(=O)c1ccc(-c2ccc(Br)cc2)cc1)NO
44 | 9.5 | O=C(CCCCCCCC(=O)c1ccc(N2CCCCC2)cc1)NO
45 | 4.5 | O=C(CCCCCCCC(=O)c1ccc(N2CCN(c3ccccc3)CC2)cc1)NO
46 | 6 | O=C(CCCCCC/C=C/c1ccc2ccccc2c1)NO
47 | 25 | O=C(CCCCCCCCc1ccc2ccccc2c1)NO
48 | 35 | O=C(CCCCCCCC(O)c1ccc2ccccc2c1)NO (stereo unspecified)
49 | 100 | CC(C)(C)c1ccc(CS(=O)(=O)Nc2ccc(/C=C\C(=O)NO)cc2)cc1
50 | 60 | COc1ccc(CS(=O)(=O)Nc2ccc(/C=C\C(=O)NO)cc2)cc1
51 | 90 | COc1ccc(CS(=O)(=O)Nc2ccc(/C=C\C(=O)NO)cc2)cc1OC
52 | 300 | Cc1ccc(S(=O)(=O)Nc2ccc(/C=C/C(=O)NO)cc2)cc1
53 | 35 | O=C(CCCCCCC(=O)c1ccc2ccccc2c1)NO
54 | 100 | O=C(/C=C/c1ccc(NS(=O)(=O)c2ccc(Cl)c(Cl)c2)cc1)NO
55 | 100 | O=C(CCc1ccc(NS(=O)(=O)c2ccccc2)cc1)NO
56 | 65 | O=C(CCCCCCCC(=O)c1ccccc1)NO
